Source: US20240158393A1, “PYRIDONE COMPOUNDS AND METHODS OF USE” (Exelixis, Inc., priority 2021, published 2024)

Columns and labels:
Human Axl = target: T1, Human Axl (Homo sapiens, UniProt P30530); experiment: Human AXL kinase assay (33P radiometric / HTRF KinEase); type: biochemical; conditions: protocols of Examples A-1 and/or A-2
T1 construct: Human AXL (residues 464-885)
T1 sequence (P30530 1-894 Q764R): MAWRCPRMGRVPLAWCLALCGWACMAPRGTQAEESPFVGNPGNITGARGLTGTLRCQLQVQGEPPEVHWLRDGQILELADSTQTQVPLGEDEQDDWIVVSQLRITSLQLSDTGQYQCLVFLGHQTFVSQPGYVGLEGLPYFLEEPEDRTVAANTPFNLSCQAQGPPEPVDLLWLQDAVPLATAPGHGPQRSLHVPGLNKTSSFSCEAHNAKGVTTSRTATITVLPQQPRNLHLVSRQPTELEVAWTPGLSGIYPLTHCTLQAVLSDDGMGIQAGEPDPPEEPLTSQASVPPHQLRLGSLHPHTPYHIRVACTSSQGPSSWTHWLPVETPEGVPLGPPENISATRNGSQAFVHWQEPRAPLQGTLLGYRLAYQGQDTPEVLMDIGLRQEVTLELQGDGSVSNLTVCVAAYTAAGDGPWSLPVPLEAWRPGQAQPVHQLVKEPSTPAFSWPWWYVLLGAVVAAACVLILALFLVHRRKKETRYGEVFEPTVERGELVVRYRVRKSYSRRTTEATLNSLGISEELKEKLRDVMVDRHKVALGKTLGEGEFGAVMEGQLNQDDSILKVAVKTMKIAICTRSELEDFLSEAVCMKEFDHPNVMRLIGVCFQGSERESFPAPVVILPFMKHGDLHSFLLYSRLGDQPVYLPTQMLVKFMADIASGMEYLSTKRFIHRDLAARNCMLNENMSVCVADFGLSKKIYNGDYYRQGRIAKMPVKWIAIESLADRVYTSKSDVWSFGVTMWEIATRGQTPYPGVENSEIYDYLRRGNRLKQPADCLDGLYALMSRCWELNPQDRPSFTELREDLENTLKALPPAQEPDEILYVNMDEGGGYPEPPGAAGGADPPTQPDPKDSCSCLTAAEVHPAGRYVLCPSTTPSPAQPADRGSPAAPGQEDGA

Human Met = target: T2, Human Met (Homo sapiens, UniProt P08581); experiment: Human Met kinase assay (33P radiometric / HTRF KinEase); type: biochemical; conditions: protocols of Examples D-1 and/or D-2; read-out: c-Met IC50
T2 construct: Human MET (residues 956-1390)
Summary of the method: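 Two formats gave IC50s by curve fitting. HTRF KinEase used MET residues 956-1390 with 1 μM biotin-peptide and 3.0 μM ATP (Km) for 40 min at room temperature, ten doses in 3% DMSO, 665/620 nm read. The 33P transfer assay used mutant Met R974-S1390 A1209G/V1290L (3.4 nM), 10 μM ATP, 250 μM peptide, pH 7.0, 40 min, nine doses from 1 μM.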

T2 sequence (P08581 974-1390 limits assumed): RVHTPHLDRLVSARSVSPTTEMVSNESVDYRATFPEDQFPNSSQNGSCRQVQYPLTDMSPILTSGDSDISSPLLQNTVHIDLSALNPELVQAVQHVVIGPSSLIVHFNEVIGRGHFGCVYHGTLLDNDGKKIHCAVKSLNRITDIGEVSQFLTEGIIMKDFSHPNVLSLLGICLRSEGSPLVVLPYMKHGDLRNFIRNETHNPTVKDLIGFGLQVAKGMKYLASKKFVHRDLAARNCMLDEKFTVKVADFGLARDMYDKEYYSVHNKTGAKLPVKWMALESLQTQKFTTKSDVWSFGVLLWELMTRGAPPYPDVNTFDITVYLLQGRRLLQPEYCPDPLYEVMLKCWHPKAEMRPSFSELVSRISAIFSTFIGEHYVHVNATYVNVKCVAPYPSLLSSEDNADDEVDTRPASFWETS

| IC50 (Human Axl) | IC50 (Human Met) | SMILES |
| --- | --- | --- |
| ≤ 100 nM | > 300 nM | COc1cc2nccc(Oc3cc(F)c(NC(=O)c4c(C)n(C)c(C)c(C5CC5)c4=O)cc3F)c2nc1OC [Compound 47, 5-Cyclopropyl-N-[4-[(6,7-dimethoxy-1,5-naphthyridin-4-yl)oxy]-2,5-difluorophenyl]-1,2,6-trimethyl-4-oxopyridine-3-carboxamide] |
| ≤ 100 nM | > 300 nM | COc1cc2nccc(Oc3ccc(NC(=O)c4c(C)n(C)c(C)c(C5CC5)c4=O)cc3)c2nc1OC [Compound 48, 5-Cyclopropyl-N-[4-[(6,7-dimethoxy-1,5-naphthyridin-4-yl)oxy]phenyl]-1,2,6-trimethyl-4-oxopyridine-3-carboxamide] |
| ≤ 100 nM | > 300 nM | COc1cc2nccc(Oc3ccc(NC(=O)c4c(C)n(C)c(C)c(/C=C/C(C)(C)C)c4=O)cc3F)c2nc1OC [Compound 49, N-[4-[(6,7-Dimethoxy-1,5-naphthyridin-4-yl)oxy]-3-fluorophenyl]-5-[(E)-3,3-dimethylbut-1-enyl]-1,2,6-trimethyl-4-oxopyridine-3-carboxamide] |
| ≤ 100 nM | > 300 nM | COc1cc2nccc(Oc3ccc(NC(=O)c4c(C)n(C)c(C)c(/C=C/C5CC5)c4=O)cc3F)c2nc1OC [Compound 50, 5-[(E)-2-Cyclopropylethenyl]-N-[4-[(6,7-dimethoxy-1,5-naphthyridin-4-yl)oxy]-3-fluorophenyl]-1,2,6-trimethyl-4-oxopyridine-3-carboxamide] |
| ≤ 100 nM | ≤ 100 nM | COCCOc1cc2nccc(Oc3ccc(NC(=O)c4c(C)n(C)c(C)c(/C=C/C5CC5)c4=O)cc3F)c2nc1OC [Compound 51, 5-[(E)-2-Cyclopropylethenyl]-N-[3-fluoro-4-[[6-methoxy-7-(2-methoxyethoxy)-1,5-naphthyridin-4-yl]oxy]phenyl]-1,2,6-trimethyl-4-oxopyridine-3-carboxamide] |
| ≤ 100 nM | ≤ 100 nM | COc1cc2nccc(Oc3ccc(NC(=O)c4c5n(c(C)c(C6=CCOCC6)c4=O)CCOC5)cc3F)c2nc1OC [Compound 79, 7-(3,6-Dihydro-2H-pyran-4-yl)-N-[4-[(6,7-dimethoxy-1,5-naphthyridin-4-yl)oxy]-3-fluorophenyl]-6-methyl-8-oxo-3,4-dihydro-1H-pyrido[2,1-c][1,4]oxazine-9-carboxamide] |
| ≤ 100 nM | ≤ 100 nM | COc1cc2nccc(Oc3ccc(NC(=O)c4c5n(c(C)c(C6=CCCCC6)c4=O)CCOC5)cc3F)c2nc1OC [Compound 80, 7-(Cyclohexen-1-yl)-N-[4-[(6,7-dimethoxy-1,5-naphthyridin-4-yl)oxy]-3-fluorophenyl]-6-methyl-8-oxo-3,4-dihydro-1H-pyrido[2,1-c][1,4]oxazine-9-carboxamide] |
| > 300 nM | > 300 nM | COc1cnc2c(Oc3ccc(NC(=O)c4c(C)n(C)c(C)c(C#N)c4=O)cc3F)ccnc2c1 [Compound 81, 5-Cyano-N-[3-fluoro-4-[(7-methoxy-1,5-naphthyridin-4-yl)oxy]phenyl]-1,2,6-trimethyl-4-oxopyridine-3-carboxamide] |
| > 300 nM | > 300 nM | COc1cc2nccc(Oc3ccc(NC(=O)c4c(C)n(C)c(C)c(C#N)c4=O)cc3)c2nc1OC [Compound 82, 5-Cyano-N-[4-[(6,7-dimethoxy-1,5-naphthyridin-4-yl)oxy]phenyl]-1,2,6-trimethyl-4-oxopyridine-3-carboxamide] |
| 100 to 300 nM | > 300 nM | COCCOc1cc2nccc(Oc3cc(F)c(NC(=O)c4c(C)n(C)c(C)c(C#N)c4=O)cc3F)c2nc1OC [Compound 83, 5-Cyano-N-[2,5-difluoro-4-[[6-methoxy-7-(2-methoxyethoxy)-1,5-naphthyridin-4-yl]oxy]phenyl]-1,2,6-trimethyl-4-oxopyridine-3-carboxamide] |
| > 300 nM | > 300 nM | COc1cc2nccc(Oc3ccc(NC(=O)c4c(C)nc(C)c(C(N)=O)c4O)cc3F)c2nc1OC [Compound 84, 3-N-[4-[(6,7-Dimethoxy-1,5-naphthyridin-4-yl)oxy]-3-fluorophenyl]-4-hydroxy-2,6-dimethylpyridine-3,5-dicarboxamide] |
| > 300 nM | > 300 nM | COc1cc2nccc(Oc3ccc(NC(=O)c4c(C)nc(C)c(C(N)=O)c4O)cc3)c2nc1OC [Compound 85, 3-N-[4-[(6,7-Dimethoxy-1,5-naphthyridin-4-yl)oxy]phenyl]-4-hydroxy-2,6-dimethylpyridine-3,5-dicarboxamide] |
| > 300 nM | > 300 nM | COCCOc1cc2nccc(Oc3cc(F)c(NC(=O)c4c(C)nc(C)c(C(N)=O)c4O)cc3F)c2nc1OC [Compound 86, 3-N-[2,5-Difluoro-4-[[6-methoxy-7-(2-methoxyethoxy)-1,5-naphthyridin-4-yl]oxy]phenyl]-4-hydroxy-2,6-dimethylpyridine-3,5-dicarboxamide] |
| > 300 nM | > 300 nM | COc1cc2nccc(Oc3ccc(NC(=O)c4c(C)nc(C)c(C#N)c4O)cc3F)c2nc1OC [Compound 87, 5-Cyano-N-[4-[(6,7-dimethoxy-1,5-naphthyridin-4-yl)oxy]-3-fluorophenyl]-4-hydroxy-2,6-dimethylpyridine-3-carboxamide] |
| ≤ 100 nM | > 300 nM | COc1cc2nccc(Oc3ccc(NC(=O)c4c(C)n(C)c(C)c(N5CCOCC5)c4=O)cc3F)c2nc1OC [Compound 88, N-[4-[(6,7-Dimethoxy-1,5-naphthyridin-4-yl)oxy]-3-fluorophenyl]-1,2,6-trimethyl-5-morpholin-4-yl-4-oxopyridine-3-carboxamide] |
| ≤ 100 nM | ≤ 100 nM | COc1cc2nccc(Oc3ccc(NC(=O)c4c(C)n(C)c(C)c(N5CCCC5)c4=O)cc3F)c2nc1OC [Compound 89, N-[4-[(6,7-Dimethoxy-1,5-naphthyridin-4-yl)oxy]-3-fluorophenyl]-1,2,6-trimethyl-4-oxo-5-pyrrolidin-1-ylpyridine-3-carboxamide] |
| ≤ 100 nM | > 300 nM | COc1cc2nccc(Oc3ccc(NC(=O)c4c(C)n(C)c(C)c(N5CCCCC5)c4=O)cc3F)c2nc1OC [Compound 90, N-[4-[(6,7-dimethoxy-1,5-naphthyridin-4-yl)oxy]-3-fluorophenyl]-1,2,6-trimethyl-4-oxo-5-piperidin-1-ylpyridine-3-carboxamide] |
| > 300 nM | > 300 nM | COc1cnc2c(Oc3ccc(NC(=O)c4c(C)nc(C)c(C(N)=O)c4O)cc3F)ccnc2c1 [Compound 91, 3-N-[3-Fluoro-4-[(7-methoxy-1,5-naphthyridin-4-yl)oxy]phenyl]-4-hydroxy-2,6-dimethylpyridine-3,5-dicarboxamide] |
| > 300 nM | > 300 nM | COc1cc2nccc(Oc3ccc(NC(=O)c4c(C)n(C)c(C)c(C(=O)O)c4=O)cc3F)c2nc1OC [Compound 92, 5-[[4-[(6,7-Dimethoxy-1,5-naphthyridin-4-yl)oxy]-3-fluorophenyl]carbamoyl]-1,2,6-trimethyl-4-oxopyridine-3-carboxylic acid] |
| ≤ 100 nM | ≤ 100 nM | COc1cc2nccc(Oc3ccc(NC(=O)c4c(C)nc(C)c(C(=O)N(C)C)c4O)cc3F)c2nc1OC [Compound 93, 3-N-[4-[(6,7-Dimethoxy-1,5-naphthyridin-4-yl)oxy]-3-fluorophenyl]-4-hydroxy-5-N,5-N,2,6-tetramethylpyridine-3,5-dicarboxamide] |
| ≤ 100 nM | > 300 nM | COc1cc2nccc(Oc3ccc(NC(=O)c4c(C)nc(C)c(C(=O)NC(C)C)c4O)cc3F)c2nc1OC [Compound 94, 3-N-[4-[(6,7-Dimethoxy-1,5-naphthyridin-4-yl)oxy]-3-fluorophenyl]-4-hydroxy-2,6-dimethyl-5-N-propan-2-ylpyridine-3,5-dicarboxamide] |
| 100 to 300 nM | > 300 nM | COc1cc2nccc(Oc3ccc(NC(=O)c4c(C)n(C)c(C)c(C(=O)N(C)C)c4=O)cc3F)c2nc1OC [Compound 95, 5-N-[4-[(6,7-Dimethoxy-1,5-naphthyridin-4-yl)oxy]-3-fluorophenyl]-3-N,3-N,1,2,6-pentamethyl-4-oxopyridine-3,5-dicarboxamide] |
| > 300 nM | > 300 nM | COc1cc2nccc(Oc3ccc(NC(=O)c4c(C)n(C)c(C)c(C(=O)NC5CC5)c4=O)cc3F)c2nc1OC [Compound 96, 3-N-Cyclopropyl-5-N-[4-[(6,7-dimethoxy-1,5-naphthyridin-4-yl)oxy]-3-fluorophenyl]-1,2,6-trimethyl-4-oxopyridine-3,5-dicarboxamide] |
